Drawing on DBAASP, this text covers MIC for 2 compounds.

Converted amounts (≈) assume the structure as drawn.

What all share (experiment): ≥ marks a high value that may be exact or a test limit, other limits are often not marked, values filed in µg/mL are converted to µM
The subject of assay [1] is Candida albicans ATCC 10231.
Assay [2] relates to Candida glabrata ATCC 2001.
For assay [3], the system named is Candida krusei ATCC 6258.
Assay [4] deals with Candida parapsilosis ATCC 90018.
Assay [5] relates to Candida tropicalis ATCC 750.
Assay [6] has as its system Escherichia coli ATCC 25922.
Assay [7] concerns Pseudomonas aeruginosa ATCC 27853.
The test system of assay [8] is Staphylococcus aureus ATCC 29213.
Assay [9] has as its system Bacillus subtilis ATCC 6633.
Assay [10] relates to Candida albicans ATCC 36232.
In assay [11] the test system is Escherichia coli KCTC 2433.
In assay [12] the test system is Klebsiella pneumoniae ATCC 10031.
For assay [13], the system named is Micrococcus luteus ATCC 4698.
The subject of assay [14] is Proteus mirabilis ATCC 25933.
Assay [15] deals with Pseudomonas aeruginosa ATCC 9027.
Assay [16] relates to Shigella dysenteriae ATCC 9752.
For assay [17], the system named is Staphylococcus aureus ATCC 25923.
The subject of assay [18] is Staphylococcus aureus KCTC 3881.
The test system of assay [19] is Staphylococcus epidermidis ATCC 12228.

As a reminder, the MIC is the lowest concentration found to suppress growth. `CC[C@H](C)[C@H](NC(=O)CN)C(=O)N[C@@H](CC(C)C)C(=O)N[C@@H](CC(=O)O)C(=O)N[C@H](C(=O)N[C@@H](CC(C)C)C(=O)N[C@@H](CC(N)=O)C(=O)N[C@@H](CCCCN)C(=O)N[C@H](C(=O)N[C@@H](CO)C(=O)N[C@@H](CC(N)=O)C(=O)N[C@@H](CC(C)C)C(=O)N[C@@H](Cc1ccccc1)C(N)=O)C(C)C)[C@@H](C)CC` [GILDILNKVSNLF]: the MIC is 31.2 µM (≈ 45.1 µg/mL) in [1]; not below 125 µM in assay [2]; not below 62.5 µM in assay [3]; not below 125 µM in assay [4]; 31.2 µM (≈ 45.1 µg/mL) in assay [5]; 62.5 µM (≈ 90.3 µg/mL) in assay [6]. For the same compound, the MIC in [7] is 31.2 µM (≈ 45.1 µg/mL); in [8] it was 8 µM (≈ 11.6 µg/mL).

In the case of `CC[C@H](C)[C@@H]1NC(=O)[C@H](CCCCN)NC(=O)[C@@H](NC(=O)[C@H](CCCCN)NC(=O)[C@H](CC(C)C)NC(=O)[C@H](CCC(N)=O)NC(=O)[C@H](CCC(=O)O)NC(=O)[C@H](CC(C)C)NC(=O)[C@H](CC(C)C)NC(=O)[C@H](CO)NC(=O)CNC(=O)CNC(=O)[C@@H](NC(=O)[C@H](CC(N)=O)NC(=O)[C@H](CCCCN)NC(=O)[C@H](C)NC(=O)[C@@H](NC(=O)[C@H](CC(N)=O)NC(=O)[C@H](CCCCN)NC(=O)CNC(=O)[C@@H](NC(=O)[C@H](C)NC(=O)[C@H](CCCCN)NC(=O)[C@H](CC(C)C)NC(=O)[C@@H](NC(=O)CNC(=O)[C@@H](NC(=O)[C@@H](NC(=O)[C@@H](NC(=O)[C@H](CO)NC(=O)[C@H](Cc2ccccc2)NC(=O)[C@H](CC(C)C)NC(=O)CN)C(C)C)C(C)C)[C@@H](C)O)C(C)C)C(C)C)C(C)C)C(C)C)CSSC[C@@H](C(=O)O)NC(=O)CNC(=O)CNC(=O)[C@H](CO)NC1=O` [GLFSVVTGVLKAVGKNVAKNVGGSLLEQLKCKISGGC], the MIC in assay [9] stood at 13.6 µM (≈ 50 µg/mL); in [10], 13.6 µM (≈ 50 µg/mL); in assay [6], 15 µM (≈ 55.1 µg/mL); in [11], 16.3 µM (≈ 60 µg/mL); in assay [12] it was 13.6 µM (≈ 50 µg/mL); in assay [13], 1.7 µM (≈ 6.25 µg/mL). For the same compound, the MIC in assay [14] is 27.2 µM (≈ 99.9 µg/mL); in assay [15], more than 27.2 µM; in [16], 13.6 µM (≈ 50 µg/mL); in [17], 30 µM (≈ 110 µg/mL); in assay [18] it was 6.8 µM (≈ 25 µg/mL); in assay [19], 13.6 µM (≈ 50 µg/mL).
